The values that follow come from patent US10716821B2, “Use of plant extracts against herpes simplex virus” (UNIVERSITÉ DU QUÉBEC À CHICOUTIMI, priority 2013, dated 2020).

The subject of this test is HSV-1. In words: HSV-1 plaque reduction, method D: replication period. It is filed as cell-based, herpes simplex virus type-1. As to the method:
Plaque assays were performed with monolayer cultures of Vero cells in 24-well culture plates. For plaque reduction assay, cell monolayer was infected with virus (30 pfu/well) and incubated at 37° C. with 5% CO2 for one hour. The infected cell monolayer was then washed with PBS and overlaid with overlapping solution (maintenance medium containing 1% methylcellulose and various concentrations of indicated compounds). After 72 h of incubation at 37° C., cell monolayer was fixed with 5% paraformaldehyde and stained with 0.8% crystal violet. Plaques were counted and the percentage of inhibition was calculated as [(Pc−Pe)/Pc]100, where Pc and Pe refer to the plaque number in the absence and presence of the compound, respectively. The minimal concentration of compounds required to reduce 50% of plaque numbers (IC50) was also calculated. Cells and viruses (HSV-1) were incubated with acyclovir and various extracts at different stages during the viral infection cycle in order to determine the antiviral action mode (Koch et al., 2008). (A) For virus pretreatment assay, the virus suspension was incubated in a medium containing different concentrations of the extracts for one hour at 37° C. prior to infection of Vero cells. […] The antiviral activity of non-cytotoxic plant extracts was determined against HSV-1 in vitro. […] Then, the cells were washed and quantified using resazurin.

Molecules are shown by their SMILES.

With `Nc1nc2c(ncn2COCCO)c(=O)[nH]1` [Acyclovir], the inhibition at 100 µg/mL (Human alphaherpesvirus 1, 72 h, at 100 μg/ml, replication period (extracts added after infection, stay 3 days on cells), Vero cells, read-out: Inhibitory percentage of lysis plaques, D) amounted to 100%. The “Protection of VERO cells against infection (positive control)” value (dose of 0.75 μg/ml) is recorded as “protects VERO cells against infection”.
